Target: human Nav1.7 (Homo sapiens (Human), UniProt Q15858)
Assay: Nav 1.7 in vitro PatchXpress (PX) assay
Type: cell-based
Details: not given

Chain of human Nav1.7 (Q15858 whole entry): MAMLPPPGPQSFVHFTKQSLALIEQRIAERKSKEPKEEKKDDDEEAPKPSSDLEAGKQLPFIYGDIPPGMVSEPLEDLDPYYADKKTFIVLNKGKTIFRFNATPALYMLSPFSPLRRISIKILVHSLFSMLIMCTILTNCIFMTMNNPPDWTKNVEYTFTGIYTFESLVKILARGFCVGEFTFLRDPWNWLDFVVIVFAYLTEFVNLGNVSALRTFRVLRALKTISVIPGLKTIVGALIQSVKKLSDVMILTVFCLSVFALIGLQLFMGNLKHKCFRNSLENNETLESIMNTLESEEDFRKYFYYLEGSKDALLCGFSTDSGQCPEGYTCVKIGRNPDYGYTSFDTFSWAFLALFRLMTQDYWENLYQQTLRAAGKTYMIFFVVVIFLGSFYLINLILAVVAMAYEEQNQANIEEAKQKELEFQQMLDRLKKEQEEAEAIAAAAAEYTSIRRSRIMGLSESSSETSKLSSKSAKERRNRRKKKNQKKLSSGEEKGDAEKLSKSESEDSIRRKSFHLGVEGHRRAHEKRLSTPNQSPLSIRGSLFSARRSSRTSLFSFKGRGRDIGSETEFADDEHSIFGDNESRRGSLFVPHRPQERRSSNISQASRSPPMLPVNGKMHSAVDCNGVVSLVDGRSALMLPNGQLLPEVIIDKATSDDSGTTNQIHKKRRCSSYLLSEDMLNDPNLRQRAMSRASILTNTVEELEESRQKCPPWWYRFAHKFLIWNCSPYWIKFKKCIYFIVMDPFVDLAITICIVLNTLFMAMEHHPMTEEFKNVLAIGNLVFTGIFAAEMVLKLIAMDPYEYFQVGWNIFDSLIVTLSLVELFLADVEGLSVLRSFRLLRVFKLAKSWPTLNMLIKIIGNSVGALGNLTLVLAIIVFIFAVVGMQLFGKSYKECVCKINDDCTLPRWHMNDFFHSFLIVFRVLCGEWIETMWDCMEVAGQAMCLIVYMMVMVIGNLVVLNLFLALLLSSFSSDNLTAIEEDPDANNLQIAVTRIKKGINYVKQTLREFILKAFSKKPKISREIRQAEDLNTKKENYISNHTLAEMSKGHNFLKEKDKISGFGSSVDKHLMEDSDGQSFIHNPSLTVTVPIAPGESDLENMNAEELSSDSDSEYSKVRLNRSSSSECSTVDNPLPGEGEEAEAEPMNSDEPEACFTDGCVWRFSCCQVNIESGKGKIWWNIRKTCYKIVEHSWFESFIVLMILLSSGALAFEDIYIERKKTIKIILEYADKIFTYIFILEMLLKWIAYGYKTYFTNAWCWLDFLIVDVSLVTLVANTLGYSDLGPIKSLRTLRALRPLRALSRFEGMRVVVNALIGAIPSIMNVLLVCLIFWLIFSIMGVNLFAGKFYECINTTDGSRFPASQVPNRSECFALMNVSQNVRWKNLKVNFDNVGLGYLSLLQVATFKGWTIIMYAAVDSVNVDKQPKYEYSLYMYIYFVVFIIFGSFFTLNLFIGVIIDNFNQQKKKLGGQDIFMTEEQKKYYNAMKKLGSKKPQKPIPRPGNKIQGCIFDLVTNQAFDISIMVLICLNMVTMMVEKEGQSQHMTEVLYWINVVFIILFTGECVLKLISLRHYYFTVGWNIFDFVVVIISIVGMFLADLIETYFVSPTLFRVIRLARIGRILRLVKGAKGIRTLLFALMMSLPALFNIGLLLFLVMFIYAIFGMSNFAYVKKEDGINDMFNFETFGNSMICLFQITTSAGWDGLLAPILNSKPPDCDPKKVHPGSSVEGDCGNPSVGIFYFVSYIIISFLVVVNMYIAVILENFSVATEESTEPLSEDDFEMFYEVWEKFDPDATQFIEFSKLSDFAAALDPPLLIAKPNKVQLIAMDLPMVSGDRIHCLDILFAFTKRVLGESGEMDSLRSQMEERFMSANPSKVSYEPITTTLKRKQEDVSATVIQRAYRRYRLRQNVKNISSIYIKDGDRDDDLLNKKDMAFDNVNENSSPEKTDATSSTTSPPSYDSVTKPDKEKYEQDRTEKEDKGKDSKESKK

Question: `COc1cc(C(=O)NS(C)(=O)=O)c(F)cc1-c1cnc(Oc2cccc(Cl)c2C)c(Cl)c1` [Example 704, 4-(5-chloro-6-(3-chloro-2-methylphenoxy)-3-pyridinyl)-2-fluoro-5-methoxy-N-(methylsulfonyl)benzamide] was tested. Which IC50 did it give?
Answer: 0.0468 µM

Question: For `Cc1cc(C(=O)NS(C)(=O)=O)c(F)cc1-c1cnc(Oc2cccc3c2CCCC3)c(Cl)c1` [Example 610, 4-(5-chloro-6-(5,6,7,8-tetrahydro-1-naphthalenyloxy)-3-pyridinyl)-2-fluoro-5-methyl-N-(methylsulfonyl)benzamide], which IC50 is on record?
Answer: 0.104 µM

Question: How did the IC50 turn out when `COc1cc(C(=O)NS(C)(=O)=O)ccc1-c1cnc(Oc2ccc3c(c2)CCC3)c(Cl)c1` [Example 580, 4-(5-chloro-6-(2,3-dihydro-1H-inden-5-yloxy)-3-pyridinyl)-3-methoxy-N-(methylsulfonyl)benzamide] was run?
Answer: 0.0661 µM

Question: `COc1cc(C(=O)NS(C)(=O)=O)c(F)cc1-c1cnc(OC2CCC2)c(Cl)c1` [Example 702, 4-(5-chloro-6-(cyclobutyloxy)-3-pyridinyl)-2-fluoro-5-methoxy-N-(methylsulfonyl)benzamide] was tested. Which IC50 did it give?
Answer: 0.0684 µM

Question: `Cc1cc(C(=O)NS(C)(=O)=O)c(F)cc1-c1cnc(N2CCC[C@@H]2c2ccccc2C(F)(F)F)c(Cl)c1` [Example 659, 4-(5-chloro-6-((2R)-2-(2-(trifluoromethyl)phenyl)-1-pyrrolidinyl)-3-pyridinyl)-2-fluoro-5-methyl-N-(methylsulfonyl)benzamide, 4-(5-chloro-6-((2S)-2-(2-(trifluoromethyl)phenyl)-1-pyrrolidinyl)-3-pyridinyl)-2-fluoro-5-methyl-N-(methylsulfonyl)benzamide] was tested. Which IC50 did it give?
Answer: 0.107 µM

Question: For `COc1cc(C(=O)NS(C)(=O)=O)ccc1-c1cnc(Oc2ccc(Cl)cc2F)c(Cl)c1` [Example 376, 4-(5-chloro-6-(4-chloro-2-fluorophenoxy)-3-pyridinyl)-3-methoxy-N-(methylsulfonyl)benzamide], which IC50 is on record?
Answer: 0.0603 µM

Question: `COc1ncc(Oc2ncc(-c3ccc(C(=O)NS(C)(=O)=O)cc3OC3COC3)cc2Cl)cc1Cl` [Example 412, 4-(5-chloro-6-((5-chloro-6-methoxy-3-pyridinyl)oxy)-3-pyridinyl)-N-(methylsulfonyl)-3-(3-oxetanyloxy)benzamide] was tested. Which IC50 did it give?
Answer: 0.0989 µM

Question: How did the IC50 turn out when `CS(=O)(=O)NC(=O)c1ccc(-c2cnc(Oc3cccc(C(F)(F)F)c3)c(Cl)c2)c(OC(F)F)c1` [Example 456, 4-(5-chloro-6-(3-(trifluoromethyl)phenoxy)-3-pyridinyl)-3-(difluoromethoxy)-N-(methylsulfonyl)benzamide] was run?
Answer: 0.064 µM

Question: `CS(=O)(=O)NC(=O)c1ccc(-c2cnc(OCCc3ccccc3)c(Cl)c2)c(OC(F)F)c1` [Example 467, 4-(5-chloro-6-(2-phenylethoxy)-3-pyridinyl)-3-(difluoromethoxy)-N-(methylsulfonyl)benzamide] was tested. Which IC50 did it give?
Answer: 0.0788 µM

Question: `CS(=O)(=O)NC(=O)c1ccc(-c2cnc(Oc3ccccc3C(F)(F)F)c(Cl)c2)c(OC(F)F)c1` [Example 464, 4-(5-chloro-6-(2-(trifluoromethyl)phenoxy)-3-pyridinyl)-3-(difluoromethoxy)-N-(methylsulfonyl)benzamide] was tested. Which IC50 did it give?
Answer: 0.0924 µM

Question: Which IC50 does the source give for `COc1cc(C(=O)NS(C)(=O)=O)ccc1-c1cnc(Oc2ccc(Cl)cc2)c(Cl)c1` [Example 350, 4-(5-chloro-6-(4-chlorophenoxy)-3-pyridinyl)-3-methoxy-N-(methylsulfonyl)benzamide] here?
Answer: 0.0926 µM

Question: `COc1cc(C(=O)NS(C)(=O)=O)ccc1-c1cnc(Oc2cc(Cl)cc(C(F)(F)F)c2)c(Cl)c1` [Example 374, 4-(5-chloro-6-(3-chloro-5-(trifluoromethyl)phenoxy)-3-pyridinyl)-3-methoxy-N-(methylsulfonyl)benzamide] was tested. Which IC50 did it give?
Answer: 0.0584 µM

Question: How did the IC50 turn out when `Cc1ccc(Cl)cc1Oc1ncc(-c2cc(F)c(C(=O)NS(C)(=O)=O)cc2F)cc1Cl` [Example 571, 4-(5-chloro-6-(5-chloro-2-methylphenoxy)-3-pyridinyl)-2,5-difluoro-N-(methylsulfonyl)benzamide] was run?
Answer: 0.0992 µM

Question: `CS(=O)(=O)NC(=O)c1ccc(-c2cnc(Oc3cccc4ccccc34)c(Cl)c2)c(OC(F)F)c1` [Example 452, 4-(5-chloro-6-(1-naphthalenyloxy)-3-pyridinyl)-3-(difluoromethoxy)-N-(methylsulfonyl)benzamide] was tested. Which IC50 did it give?
Answer: 0.0599 µM

Question: `COc1cc(C(=O)NS(C)(=O)=O)ccc1-c1cnc(OCCc2ccccc2)c(C#N)c1` [Example 539, 4-(5-cyano-6-(2-phenylethoxy)-3-pyridinyl)-3-methoxy-N-(methylsulfonyl)benzamide] was tested. Which IC50 did it give?
Answer: 0.0942 µM

Same assay, conditions: in-vitro Nav 1.7 PX data

Question: Which IC50 does the source give for `CC[C@H](Oc1ncc(-c2cc(F)c(C(=O)NS(C)(=O)=O)cc2OC)cc1Cl)C(F)(F)F` [Example 768, 4-(5-chloro-6-(((1S)-1-(trifluoromethyl)propyl)oxy)-3-pyridinyl)-2-fluoro-5-methoxy-N-(methylsulfonyl)benzamide] here?
Answer: 0.0955 µM

Question: With `COc1cc(C(=O)NS(C)(=O)=O)ccc1-c1cnc(COc2ccc(C#N)cc2)c(Cl)c1` [Example 819, 4-(5-Chloro-6-((4-Cyanophenoxy)Methyl)-Pyridin-3-yl)-3-Methoxy-N-(Methylsulfonyl)Benzamide] as the compound, how does the IC50 read?
Answer: 6.56 µM

Question: For `Cc1c(Cl)cccc1Oc1ncc(-c2cc(F)c(C(=O)NS(C)(=O)=O)cc2OC(F)F)cc1Cl` [Example 780, 4-(5-chloro-6-(3-chloro-2-methylphenoxy)-3-pyridinyl)-5-(difluoromethoxy)-2-fluoro-N-(methylsulfonyl)benzamide], which IC50 is on record?
Answer: 0.0445 µM

Question: For `COc1cc(C(=O)NS(C)(=O)=O)c(F)cc1-c1cnc(O[C@@H]2CCC[C@H]2C)c(Cl)c1` [Example 727, 4-(5-chloro-6-(((1R,2R)-2-methylcyclopentyl)oxy)-3-pyridinyl)-2-fluoro-5-methoxy-N-(methylsulfonyl)benzamide], which IC50 is on record?
Answer: 0.102 µM

Question: With `COc1cc(C(=O)NS(C)(=O)=O)c(F)cc1-c1cnc(O[C@H](C)Cc2ccccc2)c(Cl)c1` [Example 756, 4-(5-chloro-6-((1R)-1-methyl-2-phenylethoxy)-3-pyridinyl)-2-fluoro-5-methoxy-N-(methylsulfonyl)benzamide] as the compound, how does the IC50 read?
Answer: 0.0553 µM

Question: How did the IC50 turn out when `COc1cc(C(=O)NS(C)(=O)=O)c(F)cc1-c1cnc(NCC2CCC(C)(C)CC2)c(Cl)c1` [Example 721, 4-(5-chloro-6-(((4,4-dimethylcyclohexyl)methyl)amino)-3-pyridinyl)-2-fluoro-5-methoxy-N-(methylsulfonyl)benzamide] was run?
Answer: 0.0872 µM

Question: Which IC50 does the source give for `COc1cc(C(=O)NS(C)(=O)=O)c(F)cc1-c1cnc(Oc2ccc(Cl)c(Cl)c2)c(Cl)c1` [Example 755, 4-(5-chloro-6-(3,4-dichlorophenoxy)-3-pyridinyl)-2-fluoro-5-methoxy-N-(methylsulfonyl)benzamide] here?
Answer: 0.0515 µM

Question: With `COc1cc(C(=O)NS(=O)(=O)N2CCC2)ccc1-c1cnc(Oc2cc(Cl)cc(Cl)c2)c(Cl)c1` [Example 773, N-(1-azetidinylsulfonyl)-4-(5-chloro-6-(3,5-dichlorophenoxy)-3-pyridinyl)-3-methoxybenzamide] as the compound, how does the IC50 read?
Answer: 0.114 µM

Question: With `COc1nccc(C)c1-c1cc(C(=O)NS(C)(=O)=O)ccc1-c1cnc(OCC(C)C)c(Cl)c1` (single isomer, unassigned) [Example 821, 4-(5-Chloro-6-Isobutoxypyridin-3-yl)-3-(2-Methoxy-4-Methylpyridin-3-yl)-N-(Methylsulfonyl)Benzamide] as the compound, how does the IC50 read?
Answer: 32 µM

Question: With `COc1cc(C(=O)NS(C)(=O)=O)c(F)cc1-c1cnc(Oc2c(F)ccc(C)c2F)c(Cl)c1` [Example 759, 4-(5-chloro-6-(2,6-difluoro-3-methylphenoxy)-3-pyridinyl)-2-fluoro-5-methoxy-N-(methylsulfonyl)benzamide] as the compound, how does the IC50 read?
Answer: 0.0954 µM

Question: With `COc1cc(C(=O)NS(C)(=O)=O)c(F)cc1-c1cnc(N[C@H]2CC23CCCC3)c(Cl)c1` [Example 771, 4-(5-chloro-6-((1S)-spiro[2.4]hept-1-ylamino)-3-pyridinyl)-2-fluoro-5-methoxy-N-(methylsulfonyl)benzamide] as the compound, how does the IC50 read?
Answer: 0.0868 µM

Question: How did the IC50 turn out when `COc1cc(C(=O)NS(C)(=O)=O)c(F)cc1-c1cnc(O[C@@H](C)CC(C)C)c(Cl)c1` [Example 726, 4-(5-chloro-6-(((1S)-1,3-dimethylbutyl)oxy)-3-pyridinyl)-2-fluoro-5-methoxy-N-(methylsulfonyl)benzamide] was run?
Answer: 0.0805 µM

Question: Which IC50 does the source give for `COc1cc(C(=O)NS(C)(=O)=O)c(F)cc1-c1cnc(Oc2c(F)ccc(F)c2F)c(Cl)c1` [Example 766, 4-(5-chloro-6-(2,3,6-trifluorophenoxy)-3-pyridinyl)-2-fluoro-5-methoxy-N-(methylsulfonyl)benzamide] here?
Answer: 0.0963 µM

Question: How did the IC50 turn out when `CC(C)C1CCCN1c1ncc(-c2ccc(C(=O)NS(C)(=O)=O)cc2OC(F)F)cc1Cl` (racemic) [compound 833, 4-(5-Chloro-6-(2-Isopropylpyrrolidin-1-yl)Pyridin-3-yl)-3-(Difluoromethoxy)-N-(Methylsulfonyl)Benzamide] was run?
Answer: 0.0721 µM

Question: How did the IC50 turn out when `COc1cc(C(=O)NS(C)(=O)=O)c(F)cc1-c1cnc(O[C@@H](C)C2CCC2)c(Cl)c1` (single isomer, unassigned) [Example 767] was run?
Answer: 0.0776 µM

Question: Which IC50 does the source give for `COc1cc(C(=O)NS(C)(=O)=O)c(F)cc1-c1cnc(Oc2cc(F)ccc2F)c(Cl)c1` [Example 706, 4-(5-chloro-6-(2,5-difluorophenoxy)-3-pyridinyl)-2-fluoro-5-methoxy-N-(methylsulfonyl)benzamide] here?
Answer: 0.13 µM

Question: With `COc1cc(C(=O)NS(C)(=O)=O)c(F)cc1-c1cnc(Sc2cc(C)cc(C)c2)c(Cl)c1` [Example 729, 4-(5-chloro-6-((3,5-dimethylphenyl)sulfanyl)-3-pyridinyl)-2-fluoro-5-methoxy-N-(methylsulfonyl)benzamide] as the compound, how does the IC50 read?
Answer: 0.0695 µM

Question: Which IC50 does the source give for `COc1cc(C(=O)NS(C)(=O)=O)c(F)cc1-c1cnc(OC2(C(F)(F)F)CCC2)c(Cl)c1` [Example 734, 4-(5-chloro-6-((1-(trifluoromethyl)cyclobutyl)oxy)-3-pyridinyl)-2-fluoro-5-methoxy-N-(methylsulfonyl)benzamide] here?
Answer: 0.0587 µM

Question: For `Cc1cc(C(=O)NS(=O)(=O)c2nccs2)c(F)cc1-c1cnc(OC2CCC2)c(Cl)c1` [Example 795, 4-(5-chloro-6-(cyclobutyloxy)-3-pyridinyl)-2-fluoro-5-methyl-N-(1,3-thiazol-2-ylsulfonyl)benzamide], which IC50 is on record?
Answer: 0.0571 µM

Source: patent US9663508B2, “Biaryl acyl-sulfonamide compounds as sodium channel inhibitors” (AMGEN INC., priority 2013, dated 2017)
